The source made the active and inactive calls. No rule for the calls is given here.
Test system: rodent carcinogenicity bioassays, tumor incidence
Experiment: CCRIS carcinogenicity studies
Conditions: Dose: 0, Dose: 0
Method in brief: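 Archive of carcinogenicity, mutagenicity, tumor promotion and tumor inhibition results drawn from journals, NCI reports and other sources, expert-reviewed; covers 1985-2011 and is no longer updated.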

**Q.** For Cc1ccc(S(=O)(=O)NC(=O)NN2CCCCCC2)cc1, which carcinogen call (Species: MOUSE, Strain/Sex: B6C3F1/FEMALE, Route: ORAL, 5000, 10000 PPM IN DIET, 5000, 10000 PPM IN DIET) is on record?
**A.** inactive; negative

**Q.** What about the carcinogen call (Species: MOUSE, Strain/Sex: B6C3F1/MALE, Route: ORAL, 5000, 10000 PPM IN DIET, 5000, 10000 PPM IN DIET) of the same compound?
**A.** inactive; negative

**Q.** And the carcinogen call (Species: RAT, Strain/Sex: F344/FEMALE, Route: ORAL, 5000, 10000 PPM IN DIET, 5000, 10000 PPM IN DIET)?
**A.** inactive; negative

**Q.** And the carcinogen call (Species: RAT, Strain/Sex: F344/MALE, Route: ORAL, 5000, 10000 PPM IN DIET, 5000, 10000 PPM IN DIET)?
**A.** inactive; negative

**Q.** For Nc1ccc(/C=C/c2ccc(N)c(S(=O)(=O)O)c2)c(S(=O)(=O)O)c1, which carcinogen call (Species: MOUSE, Strain/Sex: B6C3F1/FEMALE, Route: ORAL, 6250, 12500 PPM IN DIET FOR 103 WK (STUDY DURATION: 2 YR), 6250, 12500 PPM IN DIET FOR 103 WK (STUDY DURATION: 2 YR)) is on record?
**A.** inactive; negative

**Q.** What about the carcinogen call (Species: MOUSE, Strain/Sex: B6C3F1/MALE, Route: ORAL, 6250, 12500 PPM IN DIET FOR 103 WK (STUDY DURATION: 2 YR), 6250, 12500 PPM IN DIET FOR 103 WK (STUDY DURATION: 2 YR)) of the same compound?
**A.** inactive; negative

**Q.** What about the carcinogen call (Species: RAT, Strain/Sex: F344/FEMALE, Route: ORAL, 12500, 25000 PPM IN DIET FOR 103 WK (STUDY DURATION: 2 YR), 12500, 25000 PPM IN DIET FOR 103 WK (STUDY DURATION: 2 YR)) of the same compound?
**A.** inactive; negative

**Q.** What about the carcinogen call (Species: RAT, Strain/Sex: F344/MALE, Route: ORAL, 12500, 25000 PPM IN DIET FOR 103 WK (STUDY DURATION: 2 YR), 12500, 25000 PPM IN DIET FOR 103 WK (STUDY DURATION: 2 YR)) of the same compound?
**A.** inactive; negative

**Q.** With Nc1ccc(-c2ccc(F)cc2)cc1 as the compound, how does the carcinogen call (Species: MOUSE, Strain/Sex: CBA/FEMALE, Route: GAVAGE, 0.05 ML OF 1% IN ARACHIS OIL 2/WK FOR 6 MO FOR AN ESTIMATED TOTAL DOSE OF 0, 13 MG (STUDY DURATION: 119 WK), 0.05 ML OF 1% IN ARACHIS OIL 2/WK FOR 6 MO FOR AN ESTIMATED TOTAL DOSE OF 0, 13 MG (STUDY DURATION: 119 WK), Tumor Site: Type of Lesion: LIVER: HEPATOMA) read?
**A.** active; positive

**Q.** And the carcinogen call (Species: MOUSE, Strain/Sex: CBA/MALE, Route: GAVAGE, 0.05 ML OF 1% IN ARACHIS OIL 2/WK FOR 6 MO FOR AN ESTIMATED TOTAL DOSE OF 0, 13 MG (STUDY DURATION: 109 WK), 0.05 ML OF 1% IN ARACHIS OIL 2/WK FOR 6 MO FOR AN ESTIMATED TOTAL DOSE OF 0, 13 MG (STUDY DURATION: 109 WK), Tumor Site: Type of Lesion: LIVER: HEPATOMA)?
**A.** active; positive

**Q.** How did the carcinogen call (Species: RAT, Strain/Sex: F344/FEMALE, Route: GAVAGE, 20, 40 UMOL/WK IN CORN OIL/ETHYL ACETATE (2: 1) FOR 30 WK FOR TOTAL DOSES OF 0, 0.6, 1.2 MMOL (STUDY DURATION: LIFETI, 20, 40 UMOL/WK IN CORN OIL/ETHYL ACETATE (2: 1) FOR 30 WK FOR TOTAL DOSES OF 0, 0.6, 1.2 MMOL (STUDY DURATION: LIFETI, Tumor Site: Type of Lesion: MAMMARY GLAND: TUMOR, UTERUS: TUMOR) turn out when CCN(N=O)C(=O)NC was run?
**A.** active; positive

**Q.** And the carcinogen call (Species: RAT, Strain/Sex: F344/FEMALE, Route: ORAL, 20, 40 UMOL/WK IN DRINKING WATER FOR 30 WK FOR TOTAL DOSES OF 0, 0.6, 1.2 MMOL (STUDY DURATION: LIFETIME), 20, 40 UMOL/WK IN DRINKING WATER FOR 30 WK FOR TOTAL DOSES OF 0, 0.6, 1.2 MMOL (STUDY DURATION: LIFETIME), Tumor Site: Type of Lesion: LUNG: TUMOR, MAMMARY GLAND: TUMOR, UTERUS: TUMOR, THYROID: FOLLICULAR CELL TUMOR, NERVOUS SYSTEM: TUMOR, Tumor Site: Type of Lesion: LUNG: TUMOR, MAMMARY GLAND: TUMOR, UTERUS: TUMOR, THYROID: FOLLICULAR CELL TUMOR, NERVOUS SYSTEM: TUMOR)?
**A.** active; positive

**Q.** And the carcinogen call (Species: RAT, Strain/Sex: F344/MALE, Route: GAVAGE, 20, 40 UMOL/WK IN CORN OIL/ETHYL ACETATE (2: 1) FOR 30 WK FOR TOTAL DOSES OF 0, 0.6, 1.2 MMOL (STUDY DURATION: LIFETI, 20, 40 UMOL/WK IN CORN OIL/ETHYL ACETATE (2: 1) FOR 30 WK FOR TOTAL DOSES OF 0, 0.6, 1.2 MMOL (STUDY DURATION: LIFETI, Tumor Site: Type of Lesion: LUNG: TUMOR, TESTIS: MESOTHELIOMA, ZYMBAL GLAND: TUMOR, Tumor Site: Type of Lesion: LUNG: TUMOR, TESTIS: MESOTHELIOMA, ZYMBAL GLAND: TUMOR)?
**A.** active; positive

**Q.** And the carcinogen call (Species: RAT, Strain/Sex: F344/MALE, Route: ORAL, 20, 40 UMOL/WK IN DRINKING WATER FOR 30 WK FOR TOTAL DOSES OF 0, 0.6, 1.2 MMOL (STUDY DURATION: LIFETIME), 20, 40 UMOL/WK IN DRINKING WATER FOR 30 WK FOR TOTAL DOSES OF 0, 0.6, 1.2 MMOL (STUDY DURATION: LIFETIME), Tumor Site: Type of Lesion: LUNG: TUMOR, THYROID: FOLLICULAR CELL TUMOR, TESTIS: MESOTHELIOMA, NERVOUS SYSTEM: TUMOR, ZYMBAL GLAND: TUMOR, COLON: TU, Tumor Site: Type of Lesion: LUNG: TUMOR, THYROID: FOLLICULAR CELL TUMOR, TESTIS: MESOTHELIOMA, NERVOUS SYSTEM: TUMOR, ZYMBAL GLAND: TUMOR, COLON: TU)?
**A.** active; positive

Reference: PubChem BioAssay AID1259411 (Chemical Carcinogenesis Research Information System (CCRIS), 2018)
